# Reference: article PMC3365589 (Journal of the American Chemical Society, 2011)
# Legend:
# [1] = molecular target: α1_2βγδ (Torpedo) nAChR; conditions: read-out: Kd of radioligand on muscle-type receptor; cited from earlier work
# [2] = test system: calcium channels; assay: Broad receptor binding screening; conditions: 10 μM
# [3] = molecular target: human α7 nAChR (Homo sapiens, UniProt P36544); format: cell-based
# [4] = test system: human M3 mAChR; assay: [3H]NMS binding inhibition, CHO cell membranes, M3; conditions: 1 μM
# [5] = test system: human M1 mAChR; assay: [3H]NMS binding inhibition, CHO cell membranes, M1; conditions: 1 μM
# [6] = molecular target: α1_2βγδ (Torpedo) nAChR; assay: Equilibrium competition binding with [125I]α-BTX on Torpedo membranes; conditions: read-out: Ki ± SEM
# [7] = molecular target: chimeric α7-5HT3 nAChR (UniProt P22770+P23979, M226I/T225I); format: binding; conditions: read-out: Ki ± SEM; α7–5HT3 (chick), [125I]α-BTX
# [8] = test system: mice; conditions: intraperitoneal injection of a lethal dose
# [9] = test system: human M2 mAChR; assay: [3H]NMS binding inhibition, CHO cell membranes, M2; conditions: 1 μM
# [10] = molecular target: human α3β2 nAChR (Homo sapiens, UniProt P17787+P32297); format: binding; conditions: read-out: Ki ± SEM, [3H]epibatidine
# [11] = molecular target: human α4β2 nAChR (Homo sapiens, UniProt P17787+P43681); format: binding
# [12] = test system: human M5 mAChR; assay: [3H]NMS binding inhibition, CHO cell membranes, M5; conditions: 1 μM, M5, [3H]NMS
# [13] = test system: human M4 mAChR; assay: [3H]NMS binding inhibition, CHO cell membranes, M4; conditions: 1 μM
Compound,Kd [1],Binding activity for calcium channels [2],"Effect on rate of desensitization of ACh-evoked currents ([3]; 350 μM ACh, −60 mV)","Direct agonist effect (current evoked when applied on its own) ([3]; 0.1–50 nM, n = 6)",Reversibility of blocking action on α7 nAChR ([3]; after a 10–15 min washout),Effect on 3H-NMS binding [4],Effect on 3H-NMS binding [5],Ki [6],Ki [7],Toxicological profile (symptoms) [8],Effect on 3H-NMS binding [9],Ki [10],Fraction of [3H]epibatidine displaced (partial antagonist property) [11],"Ki ([11]; read-out: Ki ± SEM, α4β2 (human), [3H]epibatidine)",Radiotracer displacement [12],Effect on 3H-NMS binding [13]
α-bungarotoxin [α-BTX],0.05 nM,–,–,–,–,–,–,–,–,–,–,–,–,–,–,–
"C=C1CCCC2=NC[C@H](C)[C@@H](C)C[C@@]23CCC(C(=O)O)=C[C@@H]3[C@@H]2O[C@]3(C[C@H]4CCC[C@@]5(CC[C@@]6(O[C@@H](CC[C@@]6(C)O)C1)O5)O4)C[C@@H](C)[C@@H](O)[C@H]2O3 [PnTX A, pinnatoxin A]",–,no significant binding activity,did not appear to affect the rate of desensitization,did not evoke any current,not reversible,no significant effect,no significant effect,2.8 ± 0.03 nM,0.35 ± 0.04 nM,"transient mouse hyperactivity, followed by a decrease in respiratory rate with prominent abdominal breathing leading to death due to respiratory paralysis",no significant effect,9.4 ± 1.9 nM,approximately half,15.6 ± 5.2 nM,35%,no significant effect
